1 compound from patent US9119396B2, “Method for promoting plant growth” (SUMITOMO CHEMICAL COMPANY, LIMITED, priority 2011, dated 2015) can be followed below.

Assay type in all cases: in vivo
Experiment [1] relates to Rice (cultivar: Nipponbare). Kind of experiment: Test Example 1: promotion of root growth in hydroponics of rice. The settings on record: 1 ppm, 3 days germination + 3 days cultivation, average of 4 or 5 individuals. The procedure:
Evaluation Test for Promotion of Root Growth in Hydroponics of Rice Rice (cultivar: Nipponbare) A 1/10,000 volume of each DMSO solution containing each of the present compounds 1 to 4 at 10,000 ppm was added to a Hoagland solution for hydroponics (Hoagland and Amon, California Agricultural Experiment Station 1950 Circular 347 pp. 34) at ¼ concentration to obtain a solution for hydroponics containing each of the present compounds 1 to 4 at 1 ppm. These solutions were used in the treated-group. In a non-treated group, a solution for hydroponics obtained by adding a Hoagland solution for hydroponics at ¼ concentration to a 1/10,000 volume of DMSO was used. The rice seeds were immersed in an aqueous solution of 1% sodium hypochlorite for 10 minutes, followed by 70% ethanol solution to sterilize their surfaces. After that, the seeds were washed with distilled water. The sterilized seeds were immersed in each solution for hydroponics containing the test compound at 1 ppm, and incubated at a temperature of 28° C. for 3 days under dark conditions to stimulate the germination of the seeds. Then, 30 ml of each solution for hydroponics containing the test compound at 1 ppm was dispensed into a plastic tube (20 mm in diameter×113 mm in height) covered with a cardboard on the lateral surface for blocking a light. A float made of a styrene board and a vinyl mesh was placed on the water surface of each solution for hydroponics, and the rice seeds obtained after the stimulation of germination were placed on the float. The seeds were cultivated for 3 days under the conditions of an illuminance of 4,000 lux at the top of the tube, a temperature of 26° C., a humidity of 50%, and a day length of 16 hours. The root length of the rice seedlings obtained after the cultivation was measured by using WinRHIZO system (manufactured by REGENT INSTRUMENTS). The average value of the root length in the treated group was calculated from the measurement values of 4 or 5 individuals. As a result, the root length in the treated group, wherein the plants were treated with the present compound 1, 2, 3 or 4 (at a concentration of 1 ppm in each case), was much longer than that in the non-treated group.

Experiment [2] deals with Rice (cultivar: Nipponbare). In words: Test Example 5: reduction of low-temperature stress by treatment of rice seeds. As to conditions: rice seed treatment, low-temperature stress 4° C. 5 days, then 12 days at 25° C. The procedure:
Evaluation Test for Reduction of Low-Temperature Stress by Treatment of Rice Seeds Rice (cultivar: Nipponbare) A blank slurry solution containing 5% (V/V) color coat red (Becker Underwood, Inc.), 5% (V/V) CF-Clear (Becker Underwood, Inc.) and 1% Maxim XL (Syngenta) was prepared. A slurry solution was prepared by dissolving the present compound 1 in the blank slurry solution such that 5 g or 50 g of the compound is applied to each 100 kg of rice seeds. In a 15-ml centrifuge tube (manufactured by AGC TECHNO GLASS CO., LTD.), 0.1 ml of the slurry solution was placed for each 3 g of rice seeds and stirred until the solution was dried, thereby coating the seeds. In addition, seeds were coated with the blank slurry solution and used as seeds for a non-treated group. A filter paper was placed on the bottoms of the holes of a plug tray having 406 holes, and the rice seeds treated above were sown on the filter paper. […] Twelve (12) days after the treatment, the fresh weight of the overground part of each plant was measured. The experiment was performed in four replications in each treated group and the average value was calculated. […]

The subject of the next experiment is Wheat (cultivar: Apogee). Kind of experiment: Test Example 7: reduction of high-temperature stress by spraying treatment of wheat. The settings on record: spray solution 100 ppm, high-temperature stress 36° C./32° C. 7 days, 60 days after sowing. The procedure: Evaluation Test for Reduction of High-Temperature Stress by Spraying Treatment of Wheat
Five wheat seeds were sown in the culture soil (AISAI) in each plastic pot and cultivated for 28 days in an artificial weather control room under the conditions of a temperature of 18° C. in daytime/15° C. in night, and an illuminance of 7,000 lux. Before the stress test, 3 individuals per pot were removed.
To 0.5 mg of the present compound 1 were added 120 mg of a mixture (weight ratio 1:1) of white carbon and ammonium polyoxyethylene alkyl ether sulfate and 300 μl of water. The mixture was finely ground by a wet grinding method to obtain a flowable formulation of the present compound 1. This flowable formulation was diluted with […] of water. The mixture was diluted with RINO (manufactured by NIHON NOHYAKU CO., LTD) as a spreading agent to 5,000-fold dilution to obtain a spray solution containing 100 ppm of the present compound 1. […]
After the high-temperature stress treatment, the plants were cultivated in an artificial weather control room under the conditions of a temperature of 18° C. in daytime/15° C. in night, and a illuminance of 7,000 lux. Then, 60 days after the sowing, the fresh weight of seeds in ears of the tested plants in 7 or 8 pots were measured, and the average values of the weight of seeds of ears per one pot (3 individuals) were calculated. […]

As for `COC(=O)c1cc2cc(C(F)(F)F)ccc2s1` [compound 1], the “root length of the rice seedlings vs non-treated group” value in experiment [1] is listed as “much longer”. The “fresh weight of the overground part of plants vs non-treated group” value in experiment [2] (5 g per 100 kg of seeds) and in experiment [2] (50 g per 100 kg of seeds) was “much heavier” in each case. Also, the “fresh weight of seeds of ears vs non-treated group” value with Wheat (cultivar: Apogee) is listed as “much larger”.
